According to patent US20070043049A1, “Substituted heterocyclic diarylamine analogues” (Neurogen Corporation, priority 2003, published 2007):

The compounds below were run against T1, human capsaicin receptor (Homo sapiens, UniProt Q8NER1) (assay: Calcium mobilization assay, determination of antagonist activity (Example 6)). Conditions: 50% decrease in fluorescence response of cells expressing human capsaicin receptor exposed to capsaicin.
T1 construct: pBK-CMV expression construct encoding the full length human capsaicin receptor; expressed in transfected cells
Assay type: cell-based
Procedure: A cDNA encoding full length human capsaicin receptor (SEQ ID NO:1, 2 or 3 of U.S. Pat. No. 6,482,611) was subcloned in the plasmid pBK-CMV (Stratagene, La Jolla, Calif.) for recombinant expression in mammalian cells.
Human embryonic kidney (HEK293) cells were transfected with the pBK-CMV expression construct encoding the full length human capsaicin receptor using standard methods. The transfected cells were selected for two weeks in media containing G418 (400 μg/ml) to obtain a pool of stably transfected cells. Independent clones were isolated from this pool by limiting dilution to obtain clonal stable cell lines for use in subsequent experiments.
Cells transfected with expression plasmids (as described in Example 4) and thereby expressing human capsaicin receptor are seeded and grown to 70-90% confluency in FALCON black-walled, clear-bottomed 96-well plates (#3904, BECTON-DICKINSON, Franklin Lakes, N.J.). The culture medium is emptied from the 96 well plates and FLUO-3 AM calcium sensitive dye (Molecular Probes, Eugene, Oreg.) is added to each well (dye solution: 1 mg FLUO-3 AM, 440 μL DMSO and 440 μl 20% pluronic acid in DMSO, diluted 1:250 in Krebs-Ringer HEPES (KRH) buffer (25 mM HEPES, 5 mM KCl, 0.96 mM NaH2PO4, 1 mM MgSO4, 2 mM CaCl2, 5 mM glucose, 1 mM probenecid, pH 7.4), 50 μl diluted solution per well). Plates are covered with aluminum foil and incubated at 37° C. for 1-2 hours in an environment containing 5% CO2. After the incubation, the dye is emptied from the plates, and the cells are washed once with KRH buffer, and resuspended in KRH buffer.
To measure the ability of a test compound to agonize or antagonize a calcium mobilization response in cells expressing capsaicin receptors to capsaicin or other vanilloid agonist, the EC50 of the agonist capsaicin is first determined. An additional 20 μl of KRH buffer and 1 μl DMSO is added to each well of cells, prepared as described above. 100 μl capsaicin in KRH buffer is automatically transferred by the FLIPR instrument to each well. Capsaicin-induced calcium mobilization is monitored using either FLUOROSKAN ASCENT (Labsystems; Franklin, Mass.) or FLIPR (fluorometric imaging plate reader system; Molecular Devices, Sunnyvale, Calif.) instruments. Data obtained between 30 and 60 seconds after agonist application are used to generate an 8-point concentration response curve, with final capsaicin concentrations of 1 nM to 3 μM. KALEIDAGRAPH software (Synergy Software, Reading, Pa.) is used to fit the data to the equation: y=a*(1/(1+(b/x)^c)) to determine the 50% excitatory concentration (EC50) for the response. In this equation, y is the maximum fluorescence signal, x is the concentration of the agonist or antagonist (in this case, capsaicin), a is the Emax, b corresponds to the EC50 value and c is the Hill coefficient. Determination of Agonist Activity
Test compounds are dissolved in DMSO, diluted in 20 μl KRH buffer so that the final concentration of test compounds in the assay well is between 1 μM and 5 μM, and added to cells prepared as described above. The 96 well plates containing prepared cells and test compounds are incubated in the dark, at room temperature for 0.5 to 6 hours. It is important that the incubation not continue beyond 6 hours. Just prior to determining the fluorescence response, 100 μl capsaicin in KRH buffer at twice the EC50 concentration determined as described above is automatically added by the FLIPR instrument to each well of the 96 well plate for a final sample volume of 200 μl and a final capsaicin concentration equal to the EC50. The final concentration of test compounds in the assay wells is between 1 μM and […]. […] The concentration of antagonist required to provide a 50% decrease, relative to the response observed in the presence of capsaicin and without antagonist, is the IC50 for the antagonist, and is preferably below 1 micromolar, 100 nanomolar, 10 nanomolar or 1 nanomolar.

T1 sequence (Q8NER1 whole entry): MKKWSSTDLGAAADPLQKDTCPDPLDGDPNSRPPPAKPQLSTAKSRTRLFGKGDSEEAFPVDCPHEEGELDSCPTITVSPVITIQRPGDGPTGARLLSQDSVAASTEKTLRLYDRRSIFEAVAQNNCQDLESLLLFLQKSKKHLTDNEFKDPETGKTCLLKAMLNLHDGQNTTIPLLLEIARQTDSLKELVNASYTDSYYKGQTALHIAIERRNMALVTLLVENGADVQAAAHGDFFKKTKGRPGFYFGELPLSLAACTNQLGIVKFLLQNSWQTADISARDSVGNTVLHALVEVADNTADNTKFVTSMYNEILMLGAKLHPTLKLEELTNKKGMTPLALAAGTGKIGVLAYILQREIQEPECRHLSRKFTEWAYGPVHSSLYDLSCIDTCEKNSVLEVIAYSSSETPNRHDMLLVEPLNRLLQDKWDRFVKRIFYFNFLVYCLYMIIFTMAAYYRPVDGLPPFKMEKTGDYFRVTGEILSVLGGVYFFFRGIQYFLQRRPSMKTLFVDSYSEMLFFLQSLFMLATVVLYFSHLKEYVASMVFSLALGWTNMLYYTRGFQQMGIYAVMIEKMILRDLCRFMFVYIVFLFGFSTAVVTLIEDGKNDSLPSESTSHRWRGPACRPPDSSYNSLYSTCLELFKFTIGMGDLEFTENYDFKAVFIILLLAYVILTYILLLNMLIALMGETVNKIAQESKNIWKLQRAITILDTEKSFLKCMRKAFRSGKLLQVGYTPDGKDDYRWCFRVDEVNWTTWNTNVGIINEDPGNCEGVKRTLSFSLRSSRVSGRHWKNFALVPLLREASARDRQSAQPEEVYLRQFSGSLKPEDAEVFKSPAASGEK

Row | SMILES | IC50
1 | CCCCN(C)c1nc(Nc2cccc(F)c2)nc(N2CCN(c3ncccc3Cl)CC2)n1 [Compound 75, N-Butyl-6-[4-(3-chloro-pyridin-2-yl)-piperazin-1-yl]-N′-(3-fluoro-phenyl)-N-methyl-[1,3,5]triazine-2,4-diamine] | ≤ 1000 nM
2 | CCCCc1ccc(-c2nc(Nc3ccc(C(F)(F)F)cc3)nc(N3CCN(c4ncccc4Cl)C[C@H]3C)n2)cc1 [Compound 115, {4-(4-Butyl-phenyl)-6-[4-(3-chloro-pyridin-2-yl)-2-methyl-piperazin-1-yl]-[1,3,5]triazin-2-yl}-(4-trifluoromethyl-phenyl)-amine] | ≤ 1000 nM
3 | CC(C)N(C)c1nc(Nc2ccc(C(F)(F)F)cc2)nc(N2CCN(c3ncccc3Cl)C[C@H]2C)n1 [Compound 35, 6-[4-(3-Chloro-pyridin-2-yl)-2-methyl-piperazin-1-yl]-N-isopropyl-N-methyl-N′-(4-trifluoromethyl-phenyl)-[1,3,5]triazine-2,4-diamine (R)] | ≤ 1000 nM
4 | C[C@H]1CN(c2ncccc2C(F)(F)F)CCN1c1nc(Nc2ccc(C(F)(F)F)cc2)nc(-c2ccc(C(F)(F)F)cc2)n1 [Compound 14, [4-[2-Methyl-4-(3-trifluoromethyl-pyridin-2-yl)-piperazin-1-yl]-6-(4-trifluoromethyl-phenyl)-[1,3,5]triazin-2-yl]-(4-trifluoromethyl-phenyl)-amine (S)] | ≤ 1000 nM
5 | CCN(CC)c1nc(Nc2cc(OC)ccc2OC)nc(N2CCN(c3ccccn3)CC2)n1 [Compound 108, N-(2,5-Dimethoxy-phenyl)-N′,N′-diethyl-6-(4-pyridin-2-yl-piperazin-1-yl)-[1,3,5]triazine-2,4-diamine] | ≤ 1000 nM
6 | CC(C)CCNc1nc(Nc2ccc(C(F)(F)F)cc2)nc(N2CCN(c3ncccc3Cl)C[C@H]2C)n1 [Compound 39, 6-[4-(3-Chloro-pyridin-2-yl)-2-methyl-piperazin-1-yl]-N-(3-methyl-butyl)-N′-(4-trifluoromethyl-phenyl)-[1,3,5]triazine-2,4-diamine (R)] | ≤ 1000 nM
7 | C[C@@H]1CN(c2ncccc2Cl)CCN1c1nc(Nc2ccc(F)c(F)c2)nc(N2CCOCC2)n1 [Compound 101, {4-[4-(3-Chloro-pyridin-2-yl)-2-methyl-piperazin-1-yl]-6-morpholin-4-yl-[1,3,5]triazin-2-yl}-(3,4-difluoro-phenyl)-amine (R)] | ≤ 1000 nM
8 | C[C@@H]1CN(c2ncccc2Cl)CCN1c1nc(Cl)nc(Nc2ccc(C(C)(C)C)cc2)n1 [Compound 2, (4-tert-Butyl-phenyl)-{4-chloro-6-[4-(3-chloro-pyridin-2-yl)-2-methyl-piperazin-1-yl]-[1,3,5]triazin-2-yl}-amine (R)] | ≤ 1000 nM
9 | C[C@@H]1CN(c2ncccc2Cl)CCN1c1nc(NCc2cccc(C(F)(F)F)c2)nc(Nc2ccc(C(F)(F)F)cc2)n1 [Compound 37, 6-[4-(3-Chloro-pyridin-2-yl)-2-methyl-piperazin-1-yl]-N-(3-trifluoromethyl-benzyl)-N′-(4-trifluoromethyl-phenyl)-[1,3,5]triazine-2,4-diamine (R)] | ≤ 1000 nM
10 | C[C@@H]1CN(c2ncccc2S(C)(=O)=O)CCN1c1nc(Nc2ccc(F)c(F)c2)nc(N2CCOCC2)n1 [Compound 103, (3,4-Difluoro-phenyl)-{4-[4-(3-methanesulfonyl-pyridin-2-yl)-2-methyl-piperazin-1-yl]-6-morpholin-4-yl-[1,3,5]triazin-2-yl}-amine (R)] | ≤ 1000 nM
11 | CC(C)c1ccc(-c2nc(Nc3ccc(C(F)(F)F)cc3)nc(N3CCN(c4ncccc4Cl)C[C@H]3C)n2)cc1 (stereo in doubt) [Compound 114, [4-[4-(3-Chloro-pyridin-2-yl)-2-methyl-piperazin-1-yl]-6-(4-isopropyl-phenyl)-[1,3,5]triazin-2-yl]-(4-trifluoromethyl-phenyl)-amine] | ≤ 1000 nM
12 | FC(F)(F)c1ccc(Nc2nc(N3CCN(c4ncccc4Cl)CC3)nc(N3CCN(c4ncccc4Cl)CC3)n2)cc1 [Compound 56, {4,6-Bis-[4-(3-chloro-pyridin-2-yl)-piperazin-1-yl]-[1,3,5]triazin-2-yl}-(4-trifluoromethyl-phenyl)-amine] | ≤ 1000 nM
13 | CC(C)CCNc1nc(Nc2ccc(C(F)(F)F)cc2)nc(N2CCN(c3ncccc3C(F)(F)F)C[C@@H]2C)n1 [Compound 15, N-(3-Methyl-butyl)-6-[2-methyl-4-(3-trifluoromethyl-pyridin-2-yl)-piperazin-1-yl]-N′-(4-trifluoromethyl-phenyl)-[1,3,5]triazine-2,4-diamine (S)] | ≤ 1000 nM

The remaining lines, values ahead:

Row | IC50 | SMILES
14 | ≤ 1000 nM | Cc1ccc(Nc2nc(N3CCOCC3)cc(N3CCN(c4ncccc4C(F)(F)F)CC3)n2)cc1 [Compound 87, {4-Morpholin-4-yl-6-[4-(3-trifluoromethyl-pyridin-2-yl)-piperazin-1-yl]-pyrimidin-2-yl}-p-tolyl-amine]
15 | ≤ 1000 nM | CCCN(C)c1nc(Nc2ccc(C(F)(F)F)cc2)nc(N2CCN(c3ncccc3C(F)(F)F)CC2)n1 [Compound 48, N-Methyl-N-propyl-N′-(4-trifluoromethyl-phenyl)-6-[4-(3-trifluoromethyl-pyridin-2-yl)-piperazin-1-yl]-[1,3,5]triazine-2,4-diamine]
16 | ≤ 1000 nM | Fc1ccc(Nc2nc(N3CCOCC3)nc(N3CCN(c4ncccc4Cl)CC3)n2)cc1F [Compound 68, {4-[4-(3-Chloro-pyridin-2-yl)-piperazin-1-yl]-6-morpholin-4-yl-[1,3,5]triazin-2-yl}-(3,4-difluoro-phenyl)-amine]
17 | ≤ 1000 nM | CC(C)N(C)c1nc(Nc2ccc(C(F)(F)F)cc2)nc(N2CCN(c3ncccc3C(F)(F)F)CC2)n1 [Compound 47, N-Isopropyl-N-methyl-N′-(4-trifluoromethyl-phenyl)-6-[4-(3-trifluoromethyl-pyridin-2-yl)-piperazin-1-yl]-[1,3,5]triazine-2,4-diamine]
18 | ≤ 1000 nM | Clc1ccc(Nc2nc(N3CCOCC3)nc(N3CCN(c4ncccc4Cl)CC3)n2)cc1 [Compound 62, (4-Chloro-phenyl)-{4-[4-(3-chloro-pyridin-2-yl)-piperazin-1-yl]-6-morpholin-4-yl-[1,3,5]triazin-2-yl}-amine]
19 | ≤ 1000 nM | CNc1nc(Nc2ccc(C(F)(F)F)cc2)nc(N2CCN(c3ncccc3Cl)CC2)n1 [Compound 46, 6-[4-(3-Chloro-pyridin-2-yl)-piperazin-1-yl]-N-methyl-N′-(4-trifluoromethyl-phenyl)-[1,3,5]triazine-2,4-diamine]
20 | ≤ 1000 nM | Cc1cccc(Nc2nc(N3CCOCC3)cc(N3CCN(c4ncccc4C(F)(F)F)CC3)n2)c1 [Compound 86, {4-Morpholin-4-yl-6-[4-(3-trifluoromethyl-pyridin-2-yl)-piperazin-1-yl]-pyrimidin-2-yl}-m-tolyl-amine]
21 | ≤ 1000 nM | Fc1ccc(Nc2cc(N3CCOCC3)nc(N3CCN(c4ncccc4C(F)(F)F)CC3)n2)cc1 [Compound 105, (4-Fluoro-phenyl)-{6-morpholin-4-yl-2-[4-(3-trifluoromethyl-pyridin-2-yl)-piperazin-1-yl]-pyrimidin-4-yl}-amine]
22 | ≤ 1000 nM | Fc1ccc(Nc2nc(N3CCOCC3)nc(N3CCN(c4ncccc4C(F)(F)F)CC3)n2)cc1 [Compound 59, (4-Fluoro-phenyl)-{4-morpholin-4-yl-6-[4-(3-trifluoromethyl-pyridin-2-yl)-piperazin-1-yl]-[1,3,5]triazin-2-yl}-amine]
23 | ≤ 1000 nM | COc1ccc(Nc2nc(N3CCOCC3)cc(N3CCN(c4ncccc4C(F)(F)F)CC3)n2)cc1 [Compound 89, (4-Methoxy-phenyl)-{4-morpholin-4-yl-6-[4-(3-trifluoromethyl-pyridin-2-yl)-piperazin-1-yl]-pyrimidin-2-yl}-amine]
